The target in assay [1] is T1, human NK3 receptor (Homo sapiens (Human), UniProt P29371). In words: Human neurokinin NK3 receptor antagonist effect (agonist-induced Ca2+ mobilization, CHO cells). In kind it is cell-based. The following applies: 10 uM; response to 1 nM [MePhe7]-NKB, CHO cells transfected with human NK3 receptor. How it is done: This model evaluates the antagonist activity of compounds in CHO cells transfected with the human NK3 receptor. Antagonist activity is determined by measuring the effect of compounds on agonist-induced cytosolic Ca^2+ ion mobilization using a fluorimetric detection method.
T1 sequence (P29371 whole entry): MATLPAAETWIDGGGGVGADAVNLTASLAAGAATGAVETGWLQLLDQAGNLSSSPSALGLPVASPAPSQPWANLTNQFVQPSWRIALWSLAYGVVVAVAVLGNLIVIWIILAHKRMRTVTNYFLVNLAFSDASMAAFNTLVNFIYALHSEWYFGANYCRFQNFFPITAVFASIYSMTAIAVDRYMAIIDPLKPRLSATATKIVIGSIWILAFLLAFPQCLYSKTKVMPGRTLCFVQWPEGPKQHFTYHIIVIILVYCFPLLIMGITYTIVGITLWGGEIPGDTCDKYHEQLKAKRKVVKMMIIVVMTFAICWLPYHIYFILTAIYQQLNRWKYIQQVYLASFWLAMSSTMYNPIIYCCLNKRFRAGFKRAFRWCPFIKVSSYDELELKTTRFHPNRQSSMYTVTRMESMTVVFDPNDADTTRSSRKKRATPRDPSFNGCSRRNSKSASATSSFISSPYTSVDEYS
The cells are suspended in DMEM buffer (Invitrogen) supplemented with 0.1% FCS and distributed in 96-well microplates at a density of 3×10^4 cells/well. The fluorescent probe (Calcium4, Molecular Device) is mixed with probenicid in HBSS buffer plus 20 mM Hepes (pH 7.4) (Invitrogen) and added into each well. The probe is allowed to equilibrate with the cells for 60 minutes at 37° C. followed by a 15 minute incubation at 22° C. Thereafter, the assay plates are positioned in a microplate reader (CellLux, PerkinElmer) and the test compound, reference antagonist or HBSS buffer is added. 5 minutes later, 1 nM [MePhe^7]-NKB or HBSS buffer (basal control) is added, and changes in fluorescence intensity are measured.
The standard reference antagonist is SB 222200, which is tested in each experiment at several concentrations to generate a concentration-response curve from which an IC50 value can be calculated.

Assay [2] deals with T1, human NK3 receptor. In words: Human NK3 receptor binding assay at 1 uM. To be noted: 1 μM test compound; [3H]SR142801, CHO cell membranes; read-out: percent inhibition at 1 μM. How it is done:
Antagonist activity was evaluated at a concentration of 1 μM for a representative subset of test compounds, and the results were expressed as the percent inhibition at that concentration.
Each test compound was evaluated at a single concentration of 1 μM. […] The results are expressed as a percent of control specific binding ((measured specific binding/control specific binding)×100) obtained in the presence of the test compounds.

In assay [3] the target is T1, human NK3 receptor. In words: Human neurokinin NK3 receptor agonist effect (Ca2+ mobilization, CHO cells). In kind it is cell-based. The following applies: highest tested concentration; CHO cells transfected with human NK3 receptor. How it is done:
This model evaluates the agonist activity of compounds in CHO cells transfected with the human NK3 receptor. Agonist activity is determined by measuring the effect of compounds on cytosolic Ca^2+ ion mobilization using a fluorimetric detection method.
The transfected CHO cells are suspended in DMEM buffer (Invitrogen) supplemented with 0.1% FCS, then distributed in 96-well microplates at a density of 3×10^4 cells/well. The fluorescent probe (Calcium4, Molecular Device) is mixed with probenicid in HBSS buffer plus 20 mM Hepes (pH 7.4) (Invitrogen) and added into each well. The probe is allowed to equilibrate with the cells for 60 minutes at 37° C. followed by a 15 minute incubation at 22° C. Thereafter, the assay plates are positioned in a microplate reader (CellLux, PerkinElmer) and the test compound, reference agonist or HBSS buffer (basal control) is added. Changes in fluorescence intensity, which varies proportionally to the free cytosolic Ca^2+ ion concentration, are then measured. For stimulated control measurements, [MePhe^7]-NKB at 10 nM is added in separate assay wells, and the results are expressed as a percent of the control response to 10 nM [MePhe^7]-NKB.
The standard reference agonist is [MePhe^7]-NKB, which is tested in each experiment at several concentrations to generate a concentration-response curve from which an EC50 value can be calculated.

Assay [4] has as its target T1, human NK3 receptor. In words: biochemical.
Method: Evaluation of the affinity of compounds for the human NK3 receptor from transfected CHO cells was performed using an antagonist radioligand binding assay. The antagonist activity of a representative subset of test compounds was evaluated over a range of concentrations, and the results were expressed as IC50 values.
Receptor binding assays were performed using crude membranes prepared from CHO cells expressing human NK3 receptor. Osanetant (SR142801), a non-peptide NK3 antagonist, was used as a ligand, and SB222200 was used as a positive control reference compound. The assay was performed with cell membrane homogenates (24 μg protein) incubated for 120 min at 22° C. with 0.4 nM [^3H]SR142801 in the absence or presence of the test compound in a buffer containing 20 mM Hepes/NaOH (pH 7.4), 120 mM NaCl, 1 mM MnCl2, 0.01% bacitracin, 0.002% aprotinin and 0.1% BSA. Following incubation, the samples were filtered rapidly under vacuum through glass fiber filters (GF/B, Packard) that had been presoaked with 0.3% PEI. The filters were rinsed several times with ice-cold 50 mM Tris/HCl using a 96-sample cell harvester (Unifilter, Packard), dried, and counted for radioactivity in a scintillation counter (Topcount, Packard) using a scintillation cocktail (Microscint 0, Packard). […] The standard reference compound, SB222200, was tested in each experiment. Nonspecific binding was determined in the presence of 10 μM SB222200. The specific ligand binding to the receptor is defined as the difference between the total binding and the nonspecific binding. The IC50 values (concentration causing a half-maximal inhibition of control specific binding) and Hill coefficients (nH) were determined by non-linear regression analysis of the competition curves generated with mean replicate values using Hill equation curve fitting (Y=D+[(A−D)/(1+(C/C50)^nH)], where Y=specific binding, D=minimum specific binding, A=maximum specific binding, C=compound concentration, C50=IC50, and nH=slope factor). […] The inhibition constants (Ki) were calculated using the Cheng Prusoff equation (Ki=IC50/(1+(L/KD)), where L=concentration of radioligand in the assay, and KD=affinity of the radioligand for the receptor). A scatchard plot was used to determine the Kd.
The target of assay [5] is T1, human NK3 receptor. In words: Human NK3 receptor binding assay at 10 μM. To be noted: 10 μM test compound; [3H]SR142801, CHO cell membranes; read-out: percent inhibition at 10 μM. How it is done: Antagonist activity was evaluated at a concentration of 10 μM for a representative subset of test compounds, and the results were expressed as the percent inhibition at that concentration.
Each test compound was evaluated at a single concentration of 10 μM. […] The results are expressed as a percent of control specific binding ((measured specific binding/control specific binding)×100) obtained in the presence of the test compounds.

The values below come from US8906933B2, “Dihydropyrimidin-2(1H)-one compounds as neurokinin-3 receptor antagonists” (N30 Pharmaceuticals, Inc., priority 2010, dated 2014).

For `CCOc1cc(C2NC(=O)NC(c3ccccc3)=C2C2CCCCC2)cc([N+](=O)[O-])c1O` (centres unmarked) [5-cyclohexyl-4-(3-ethoxy-4-hydroxy-5-nitrophenyl)-6-phenyl-3,4-dihydropyrimidin-2(1H)-one], the antagonist effect entry on human NK3 receptor [1] is listed as “antagonist effect was seen”. Besides, the inhibition at 1 µM on human NK3 receptor [2] was above 50%. Besides, on human NK3 receptor [3], the agonist effect result is reported as “no effect was seen”. This compound also had an IC50 at human NK3 receptor [4] of at most 100 nM. Further, the inhibition at 10 µM at human NK3 receptor [5] was above 50%.
